Literature values, collected in patent US9610295B2, “Method for treating erectile dysfunction” (priority 2010, dated 2017).

Assays:
[1] = target: phosphodiesterase type 5 (PDE5) (Homo sapiens, UniProt O76074); conditions: PDE5 vs PDE6
[2] = oral administration, Viagra formulation
[3] = in vivo

CCCc1nn(C)c2c(=O)[nH]c(-c3cc(S(=O)(=O)N4CCN(C)CC4)ccc3OCC)nc12 [sildenafil, 1-[[3-(6,7-dihydro-1-methyl-7-oxo-3-propyl-1H-pyrazolo[4,3-d]pyrimidin-5-yl)-4-ethoxyphenyl]sulfonyl]-4-methyl piperazine]
potency for PDE5 compared to PDE6 [1]: about 10 fold
absolute bioavailability [2]: about 40%

CN1CC(=O)N2[C@H](c3ccc4c(c3)OCO4)c3[nH]c4ccccc4c3C[C@@H]2C1=O [tadalafil, (6R-trans)-6-(1,3-benzodioxol-5-yl)-2,3,6,7,12,12a-hexahydro-2-methylpyrazino[1,2:1,6]-pyrido[3,4-6]indole-1,4-dione]
half-life [3]: about 17.5 hours
